The results in this text go back to EP0672658B1, “Antithrombotic agents” (priority 1994, dated 1995).

SMILES strings stand for the structures. Structures can show the parent of a compound that is named as a salt.

Experiment [1] deals with human or animal plasma. Kind of experiment: Anticoagulation determination in plasma: prothrombin time (PT). It counts as biochemical. As to conditions: concentration doubling prothrombin time. An outline of the steps:
(§1)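 Compounds spiked over a concentration range into citrated human, dog or rat plasma. PT used Thromboplastin-C; APTT used Actin reagent 120 s then 0.02 M CaCl2; TT used bovine thrombin 10 NIH units/mL. Concentration doubling clotting time estimated by linear extrapolation.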

The target of experiment [2] is factor Xa (Homo sapiens, UniProt P00742). Kind of experiment: biochemical. As to conditions: read-out: Kass Xa (converted). The procedure, abridged:
(§2)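 Bovine trypsin and human factor Xa amidase activity measured chromogenically, following the human thrombin procedure. Substrates: N-Benzoyl-Ile-Glu-Gly-Arg-p-nitroanilide for factor Xa and N-Benzoyl-Phe-Val-Arg-p-nitroanilide for trypsin. Used for selectivity profiling.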

In experiment [3] the test system is human or animal plasma. Kind of experiment: Anticoagulation determination in plasma: thrombin time (TT). It counts as biochemical. As to conditions: concentration doubling thrombin time. The procedure, abridged:
as §1

For experiment [4], the target named is T1, Plasmin (Homo sapiens, UniProt P00747).
T1 construct: Human plasmin is purchased; purchased Boehringer Mannheim, Indianapolis, Indiana
Kind of experiment: biochemical. As to conditions: read-out: Kass Plasmin (converted). An outline of the steps:
(§3)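 Amidase activity of human plasmin and t-PA (nt-PA single-chain; mt-PA6) was measured by a chromogenic method adapted from a thrombin assay. Substrates were H-D-Val-Leu-Lys-p-nitroanilide for plasmin and H-D-Ile-Pro-Arg-p-nitroanilide for t-PA.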

Experiment [5] concerns the target t-PA (Homo sapiens, UniProt P00750). Kind of experiment: biochemical. As to conditions: read-out: Kass t-PA (converted). The procedure, abridged: as §3
Experiment [6] deals with human or animal plasma. Nature of the experiment: Anticoagulation determination in plasma: activated partial thromboplastin time (APTT). It counts as biochemical. As to conditions: concentration doubling activated partial thromboplastin time. An outline of the steps:
as §1

Experiment [7] deals with Human Thrombin (Homo sapiens, UniProt P00734). Kind of experiment: biochemical. As to conditions: read-out: Kass Human Thrombin (converted).
The target in experiment [8] is T2, Trypsin (Bos taurus, UniProt P00760).
T2 sequence (P00760 24-246): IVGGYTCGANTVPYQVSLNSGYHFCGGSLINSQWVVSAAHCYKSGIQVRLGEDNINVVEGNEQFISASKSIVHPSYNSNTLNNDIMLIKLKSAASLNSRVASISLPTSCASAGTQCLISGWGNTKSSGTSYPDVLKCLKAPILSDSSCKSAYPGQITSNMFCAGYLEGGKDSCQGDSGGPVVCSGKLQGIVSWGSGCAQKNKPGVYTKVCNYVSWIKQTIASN
Nature of the experiment: biochemical. Also on record: species or system Bovine. As to conditions: read-out: Kass Trypsin (converted). An outline of the steps: as §2

t-PA, sequence (P00750 36-562): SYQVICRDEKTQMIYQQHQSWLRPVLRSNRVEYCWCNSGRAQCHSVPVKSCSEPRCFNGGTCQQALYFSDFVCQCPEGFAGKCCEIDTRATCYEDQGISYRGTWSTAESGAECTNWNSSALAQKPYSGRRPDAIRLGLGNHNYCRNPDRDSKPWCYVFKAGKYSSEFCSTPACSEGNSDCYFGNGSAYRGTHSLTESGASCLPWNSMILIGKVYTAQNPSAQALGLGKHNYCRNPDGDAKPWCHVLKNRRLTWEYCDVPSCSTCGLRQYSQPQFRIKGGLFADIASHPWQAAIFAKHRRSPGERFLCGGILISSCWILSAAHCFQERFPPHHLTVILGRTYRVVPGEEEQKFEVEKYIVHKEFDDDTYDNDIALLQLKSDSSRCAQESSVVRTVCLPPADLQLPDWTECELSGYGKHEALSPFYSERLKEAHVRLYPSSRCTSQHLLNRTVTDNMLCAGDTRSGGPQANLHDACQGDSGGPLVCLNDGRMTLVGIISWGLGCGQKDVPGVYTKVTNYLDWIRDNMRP
factor Xa, sequence (P00742 235-488 limits assumed): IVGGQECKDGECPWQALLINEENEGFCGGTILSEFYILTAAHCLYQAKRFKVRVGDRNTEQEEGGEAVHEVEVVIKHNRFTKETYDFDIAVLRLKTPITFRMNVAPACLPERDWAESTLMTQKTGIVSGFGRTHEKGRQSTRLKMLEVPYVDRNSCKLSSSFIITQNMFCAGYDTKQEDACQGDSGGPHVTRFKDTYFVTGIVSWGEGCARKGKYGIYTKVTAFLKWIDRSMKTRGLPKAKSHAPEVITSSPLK
factor Xa, sequence (P00742 41-179 partner limits assumed): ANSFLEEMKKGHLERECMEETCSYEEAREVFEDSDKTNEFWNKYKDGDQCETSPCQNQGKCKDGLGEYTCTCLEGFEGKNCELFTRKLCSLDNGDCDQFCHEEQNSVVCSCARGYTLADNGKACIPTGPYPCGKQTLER
T1 sequence (P00747 581-810 limits assumed): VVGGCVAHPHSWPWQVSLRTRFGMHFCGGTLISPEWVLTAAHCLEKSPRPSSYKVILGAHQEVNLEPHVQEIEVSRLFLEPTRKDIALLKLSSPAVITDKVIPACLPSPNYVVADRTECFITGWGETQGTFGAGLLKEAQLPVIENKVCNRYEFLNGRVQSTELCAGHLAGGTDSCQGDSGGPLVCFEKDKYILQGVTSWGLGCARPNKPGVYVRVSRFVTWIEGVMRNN
T1 sequence (P00747 97-580 partner limits assumed): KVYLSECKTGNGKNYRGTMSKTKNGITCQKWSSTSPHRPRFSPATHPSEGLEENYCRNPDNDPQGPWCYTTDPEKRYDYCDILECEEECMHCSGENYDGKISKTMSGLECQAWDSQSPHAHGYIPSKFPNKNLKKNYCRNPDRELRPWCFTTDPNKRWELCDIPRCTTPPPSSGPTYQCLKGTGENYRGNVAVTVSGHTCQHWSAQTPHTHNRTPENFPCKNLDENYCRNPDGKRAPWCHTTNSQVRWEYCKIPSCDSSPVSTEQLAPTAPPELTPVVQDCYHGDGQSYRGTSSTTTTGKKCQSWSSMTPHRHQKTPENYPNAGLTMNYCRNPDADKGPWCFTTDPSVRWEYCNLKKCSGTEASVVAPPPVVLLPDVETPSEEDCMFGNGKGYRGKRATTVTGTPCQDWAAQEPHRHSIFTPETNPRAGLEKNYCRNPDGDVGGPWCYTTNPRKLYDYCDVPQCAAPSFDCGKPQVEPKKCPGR

Turning to `N=C(N)c1cccc(CNC(=O)[C@@H]2CCCN2C(=O)[C@@H]2NCC[C@@H]3CCCC[C@@H]32)c1` [Example 25, D-1-Piq-Pro-m-NHCH2-C6H4C(=NH)NH2·HCl], the “Human Plasma Anticoagulation 2x Clotting time (ng/mL) PT” value in experiment [1] is reported as 40,400 ng/mL. Moreover, the Kd is more than 1000 µM in experiment [2]; more than 1000 µM in experiment [4]; 100 µM in experiment [5]; 2.33 µM in experiment [7]; 100 µM in experiment [8]. In experiment [3], the “Human Plasma Anticoagulation 2x Clotting time (ng/mL) TT” value was 1,430 ng/mL. Moreover, the “Human Plasma Anticoagulation 2x Clotting time (ng/mL) APTT” value in experiment [6] is given as 34,600 ng/mL.
For `CCS(=O)(=O)N[C@H](Cc1ccccc1)C(=O)N1CCC[C@H]1C(=O)NCCc1cccc(C(=N)N)c1` [Example 27, EtSO2-D-Phe-Pro-m-NHCH2CH2-C6H4C(=NH)NH2·HCl], the “Human Plasma Anticoagulation 2x Clotting time (ng/mL) PT” value in experiment [1] is on record as 27,000 ng/mL. The Kd in experiment [2] is 50 µM; in experiment [4], more than 1000 µM; in experiment [5], 50 µM; in experiment [7] it was 3.45 µM; in experiment [8] it was 50 µM. The “Human Plasma Anticoagulation 2x Clotting time (ng/mL) TT” value in experiment [3] is reported as 1,940 ng/mL. For the same compound, the “Human Plasma Anticoagulation 2x Clotting time (ng/mL) APTT” value in experiment [6] is 27,800 ng/mL.
As to `N=C(N)c1ccc(CCNC(=O)[C@@H]2CCCN2C(=O)[C@@H]2NCC[C@@H]3CCCC[C@@H]32)cc1` [Example 28, 1-Piq-Pro-p-NHCH2CH2-C6H4C(=NH)NH2·2HCl], in experiment [1], the “Human Plasma Anticoagulation 2x Clotting time (ng/mL) PT” value is 8,300 ng/mL. For the same compound, the Kd in experiment [2] is 100 µM; in experiment [4], more than 1000 µM; in experiment [5], more than 1000 µM; in experiment [7] it was 1.05 µM; in experiment [8], 9.09 µM. In addition, the “Human Plasma Anticoagulation 2x Clotting time (ng/mL) TT” value in experiment [3] is 520 ng/mL. In addition, the “Human Plasma Anticoagulation 2x Clotting time (ng/mL) APTT” value in experiment [6] is given as 8,100 ng/mL.
Consider `N=C(N)c1cccc(CCNC(=O)[C@@H]2CCCN2C(=O)[C@@H]2NCC[C@@H]3CCCC[C@@H]32)c1` [Example 29, 1-Piq-Pro-m-NHCH2CH2-C6H4C(=NH)NH2·2HCl], for which the “Human Plasma Anticoagulation 2x Clotting time (ng/mL) PT” value in experiment [1] amounted to 15.800 ng/mL. The Kd in experiment [2] is 50 µM; in experiment [4], more than 1000 µM; in experiment [5], more than 1000 µM; in experiment [7] it was 1.32 µM; in experiment [8] it was 50 µM. Further, the “Human Plasma Anticoagulation 2x Clotting time (ng/mL) TT” value in experiment [3] was 750 ng/mL. The “Human Plasma Anticoagulation 2x Clotting time (ng/mL) APTT” value in experiment [6] is reported as 9,800 ng/mL.
For the compound `CCS(=O)(=O)N[C@H](Cc1ccccc1)C(=O)N1CCC[C@H]1C(=O)NCCCc1ccc(C(=N)N)cc1` [Example 30, EtSO2-D-Phe-Pro-p-NHCH2CH2CH2-C6H4C(=NH)NH2·HCl], in experiment [1], the “Human Plasma Anticoagulation 2x Clotting time (ng/mL) PT” value is reported as 14,400 ng/mL. The Kd in experiment [2] is 50 µM; in experiment [4], more than 1000 µM; in experiment [5], more than 1000 µM; in experiment [7], 1.82 µM; in experiment [8], 33.3 µM. Moreover, the “Human Plasma Anticoagulation 2x Clotting time (ng/mL) TT” value in experiment [3] was 1,000 ng/mL. For the same compound, in experiment [6], the “Human Plasma Anticoagulation 2x Clotting time (ng/mL) APTT” value is 14,000 ng/mL.
Regarding `CCS(=O)(=O)N[C@H](Cc1ccccc1)C(=O)N1CCC[C@H]1C(=O)NCCCc1cccc(C(=N)N)c1` [Example 31, EtSO2-D-Phe-Pro-m-NHCH2CH2CH2-C6H4C(=NH)NH2·HCl], in experiment [1], the “Human Plasma Anticoagulation 2x Clotting time (ng/mL) PT” value is given as 30,000 ng/mL. For the same compound, the Kd in experiment [2] is 7.14 µM; in experiment [4], more than 1000 µM; in experiment [5] it was more than 1000 µM; in experiment [7] it was 14.3 µM; in experiment [8], 20 µM. For the same compound, the “Human Plasma Anticoagulation 2x Clotting time (ng/mL) TT” value in experiment [3] is on record as 10,800 ng/mL. Besides, in experiment [6], the “Human Plasma Anticoagulation 2x Clotting time (ng/mL) APTT” value is given as 34,500 ng/mL.
For the compound `N=C(N)c1ccc(CCCNC(=O)[C@@H]2CCCN2C(=O)[C@@H]2NCC[C@@H]3CCCC[C@@H]32)cc1` [Example 32, 1-Piq-Pro-p-NHCH2CH2CH2-C6H4C(=NH)NH2·HCl], the “Human Plasma Anticoagulation 2x Clotting time (ng/mL) PT” value in experiment [1] is listed as 47,800 ng/mL. Further, the Kd in experiment [2] was 33.3 µM; in experiment [4], more than 1000 µM; in experiment [5], 100 µM; in experiment [7] it was 7.69 µM; in experiment [8] it was 25 µM. Also, the “Human Plasma Anticoagulation 2x Clotting time (ng/mL) TT” value in experiment [3] was 3,100 ng/mL. In experiment [6], the “Human Plasma Anticoagulation 2x Clotting time (ng/mL) APTT” value was 28,500 ng/mL.
Regarding `N=C(N)c1cccc(CCCNC(=O)[C@@H]2CCCN2C(=O)[C@@H]2NCC[C@@H]3CCCC[C@@H]32)c1` [Example 33, 1-Piq-Pro-m-NHCH2CH2CH2-C6H4C(=NH)NH2·HCl], the “Human Plasma Anticoagulation 2x Clotting time (ng/mL) PT” value in experiment [1] is recorded as 70,900 ng/mL. The Kd was 25 µM in experiment [2]; more than 1000 µM in experiment [4]; more than 1000 µM in experiment [5]; 25 µM in experiment [7]; 50 µM in experiment [8]. Further, the “Human Plasma Anticoagulation 2x Clotting time (ng/mL) TT” value in experiment [3] was 18,900 ng/mL. Further, in experiment [6], the “Human Plasma Anticoagulation 2x Clotting time (ng/mL) APTT” value was 59,300 ng/mL.
For the compound `CCS(=O)(=O)N[C@H](Cc1ccccc1)C(=O)N1CCC[C@H]1C(=O)NCc1ccc(NC(=N)N)cc1` [Example 34, EtSO2-D-Phe-Pro-p-NHCH2C6H4NHC(NH)NH2·HCl], in experiment [1], the “Human Plasma Anticoagulation 2x Clotting time (ng/mL) PT” value is listed as 5,500 ng/mL. Also, the Kd in experiment [2] was more than 1000 µM; in experiment [4] it was 100 µM; in experiment [5], 100 µM; in experiment [7], 1.54 µM; in experiment [8], 2.04 µM. In addition, the “Human Plasma Anticoagulation 2x Clotting time (ng/mL) TT” value in experiment [3] came to 530 ng/mL. The “Human Plasma Anticoagulation 2x Clotting time (ng/mL) APTT” value in experiment [6] was 4,900 ng/mL.
For the compound `CCS(=O)(=O)N[C@H](Cc1ccccc1)C(=O)N1CCC[C@H]1C(=O)NCCc1ccc(NC(=N)N)cc1` [Example 35, EtSO2-D-Phe-Pro-p-NHCH2CH2C6H4CNH(NH)NH2·HCl], in experiment [1], the “Human Plasma Anticoagulation 2x Clotting time (ng/mL) PT” value was 78,400 ng/mL. In addition, the Kd was more than 1000 µM in experiment [2]; more than 1000 µM in experiment [4]; more than 1000 µM in experiment [5]; 11.1 µM in experiment [7]; 25 µM in experiment [8]. Moreover, the “Human Plasma Anticoagulation 2x Clotting time (ng/mL) TT” value in experiment [3] was 4,500 ng/mL. Also, the “Human Plasma Anticoagulation 2x Clotting time (ng/mL) APTT” value in experiment [6] is listed as 50,400 ng/mL.
Consider `CCS(=O)(=O)N[C@H](Cc1ccccc1)C(=O)N1CCC[C@H]1C(=O)NCc1cccc(NC(=N)N)c1` [Example 36, EtSO2-D-Phe-Pro-m-NHCH2C6H4NHC(NH)NH2·HCl], for which the “Human Plasma Anticoagulation 2x Clotting time (ng/mL) PT” value in experiment [1] was >91,000 ng/mL. Also, the Kd is more than 1000 µM in experiment [2]; more than 1000 µM in experiment [4]; more than 1000 µM in experiment [5]; 16.7 µM in experiment [7]; 100 µM in experiment [8]. Besides, in experiment [3], the “Human Plasma Anticoagulation 2x Clotting time (ng/mL) TT” value is recorded as 7,700 ng/mL. Further, in experiment [6], the “Human Plasma Anticoagulation 2x Clotting time (ng/mL) APTT” value is reported as >91,000 ng/mL.
Turning to `N=C(N)c1ccc(CNC(=O)[C@@H]2C[C@@H]3CCCC[C@@H]3N2C(=O)[C@H]2C[C@H]3CCCC[C@H]3CN2)cc1` [Example 43, D-3-Piq-cis-Ohi-p-NHCH2C6H4C(NH)NH2·2HCl], in experiment [1], the “Human Plasma Anticoagulation 2x Clotting time (ng/mL) PT” value was 930 ng/mL. Besides, the Kd was 20 µM in experiment [2]; 3.33 µM in experiment [4]; 100 µM in experiment [5]; 0.714 µM in experiment [7]; 0.01 µM in experiment [8]. Besides, the “Human Plasma Anticoagulation 2x Clotting time (ng/mL) TT” value in experiment [3] is 280 ng/mL. The “Human Plasma Anticoagulation 2x Clotting time (ng/mL) APTT” value in experiment [6] was 1,100 ng/mL.
